From patent US5036046A, “Method for enhancing healing of corneal endothelial wounds” (Eye Research Institute of Retina Foundation, Inc., priority 1988, dated 1991)
“Also recorded” adds a separate entry of the source. Read-outs that look alike come from different tables or passages of the source.

Assays:
[1] = tested on: endothelium of excised corneas; test: Cell migration near the wound boundary in excised corneas; type: cell-based, New Zealand white rabbits; settings: EGF 10 ng/ml, indomethacin 1 μM in M-K medium
[2] = tested on: cat corneal endothelium; settings: 22° C.; cited from earlier work
[3] = tested on: most cell culture systems; settings: cited from earlier work
[4] = tested on: cultured corneal endothelial cells; settings: control cultures and cultures with EGF added
[5] = tested on: endothelium of excised corneas; test: Shape of the cells near the wound boundary in excised corneas
[6] = tested on: endothelium of excised corneas; test: Endothelial wound area / closure in excised corneas (specular microscopy)
[7] = tested on: rabbit corneal endothelial cells; test: Cell shape morphometry of cultured rabbit corneal endothelial cells (Example 1); settings: for cell shape at confluence: cells cultured seven days in the presence of the agent; for distribution of major axes (Amax): versus control; for rank order of potency on corneal endothelial cell shape: cyclooxygenase inhibitors, with EGF; for potentiation of EGF-induced elongation: 10^-5 M (equimolar), in presence of EGF
[8] = tested on: Corneal endothelial cells; test: Transmission electron microscopy of pharmacologically modulated endothelial phenotypes; settings: treated cultures
[9] = tested on: cultured rabbit corneal endothelium; test: Pharmacological regulation of morphology and mitosis in cultured rabbit corneal endothelium; type: cell-based
[10] = tested on: Corneal endothelial cells; test: f-actin labelling with rhodamine labelled phallacidin in cultured corneal endothelial cells; settings: 1 week in culture
[11] = agent added to TPA containing medium

## epidermal growth factor [EGF]
[1]
  migration of cells near the wound boundary compared with the control group: migrated significantly more; also recorded: significantly increased migration
[2]
  time for association to be complete: approximately 120 minutes
[3]
  time at which DNA synthesis reaches a maximum: about 22 hours
  time at which increased DNA synthesis begins after addition: approximately 15 hours
[4]
  synthesis of pgE2: unaffected
[5]; EGF+indomethacin at 50, 100, 150 minutes, EGF at 100, 150 minutes, p<0.001
  relative average percent change of the shape factor, difference from control (FIG. 3): significantly different from the control group
[5]; one cornea of each group, control 200 minutes
  time of the peak of the shape change: 150 min
[6]; EGF 10 ng/ml, indomethacin 1 μM in M-K medium
  wound closure time compared with the control group: shortened the wound closure time
[6]; EGF 10 ng/ml, indomethacin 1 μM in M-K medium, control 20 minutes
  time of maximum wound area after wounding: 10 min
[6]; EGF 10 ng/ml, indomethacin 1 μM in M-K medium, control about 240 minutes
  time for wound area to decrease to 50% of the original size: ≤ 120 min
[6]; after wounding, EGF treated
  time for wounds to close to 80% of the original size: ≤ 250 min
[7]; at confluence, versus control conditions
  cell density: little or no effect
[7]
  cell shape at confluence: spindle-shaped at confluence
[7]; cultured with agent
  distribution of major axes (Amax): significantly greater distribution of major axes
[7]; cultured with agent, perfectly round cell 3.14
  ratio Per/Amax: decreases significantly
[8]
  ultrastructure by transmission electron microscopy: Junctional complexes were absent

## CC(C(=O)O)c1ccc(-c2ccccc2)c(F)c1 (stereo not shown) [flurbiprofen]
[7]
  rank order of potency on corneal endothelial cell shape: indomethacin<suprofen<flurbiprofen

## CCCCCCCCCCCCCC(=O)O[C@@H]1[C@@H](C)[C@@]2(O)[C@@H](C=C(CO)C[C@]3(O)C(=O)C(C)=C[C@@H]23)[C@H]2C(C)(C)[C@]12OC(C)=O [TPA]
[9]
  cell density / mitosis, agent alone: increased cell density
  cell shape / elongation, agent alone: caused elongation

## CC(C(=O)O)c1ccc(C(=O)c2cccs2)cc1 (stereo not shown) [suprofen]
[7]
  potentiation of EGF-induced elongation: Potentiation of EGF-induced elongation also occurs
  rank order of potency on corneal endothelial cell shape: indomethacin<suprofen<flurbiprofen

## C=C[C@@]1(C)CC(=O)[C@]2(O)[C@@]3(C)[C@@H](O)CCC(C)(C)[C@@H]3[C@H](O)[C@H](OC(C)=O)[C@@]2(C)O1 [Forskolin]
[9]; agent added with EGF and INDO
  effect on EGF and INDO-induced elongation: prevented
  effect on cell density / mitosis in presence of EGF and INDO: inhibited endothelial mitosis

## CCCCC[C@H](O)/C=C/[C@@H]1[C@@H](C/C=C\CCCC(=O)O)[C@@H](O)C[C@H]1O [pgF2α]
[7]; increasing concentrations added to cells grown with EGF and indomethacin
  effect on the elongation of Amax produced by EGF and indomethacin: has no effect

## C[C@@H]1C[C@H]2[C@@H]3CCC4=CC(=O)C=C[C@]4(C)[C@@]3(F)[C@@H](O)C[C@]2(C)[C@@]1(O)C(=O)CO [dexamethasone]
[7]
  potentiation of EGF-induced elongation: has no effect

## Cholera toxin
[9]
  cell shape / elongation, agent alone: had no effect on cell shape
  effect on EGF and INDO-induced elongation: antagonized
  effect on EGF-induced elongation: EGF-induced elongation did not occur
  effect on TPA-induced elongation: did not prevent elongation
  effect on cell density / mitogenic response to TPA: potentiate the mitogenic response
  effect on cell density / mitosis in presence of EGF and INDO: without preventing increased cell density
  effect on the mitogenic effect of EGF: potentiated

## COc1ccc2c(c1)c(CC(=O)O)c(C)n2C(=O)c1ccc(Cl)cc1 [indomethacin]
[9]; [11]
  effect on TPA-induced elongation: marked enhancement of cellular elongation
  effect on cell density / mitogenic response to TPA: had no effect on final cell density
[4]
  synthesis of pgE2: totally inhibits
[7]
  cell shape at confluence: elongated at confluence with a stellate shape
  rank order of potency on corneal endothelial cell shape: indomethacin<suprofen<flurbiprofen
[7]; cultured with agent
  distribution of major axes (Amax): increases
[10]
  f-actin staining pattern: diffuse reticular staining throughout the cytoplasm

## Pertussis toxin
[9]
  cell density / mitosis, agent alone: had no effect on either parameter
  cell density in combination with EGF or INDO: without significantly altering cell density
  cell shape / elongation, agent alone: had no effect on either parameter
  cell shape in combination with EGF or INDO: restored polygonal cell shape
